From patent US20030100479A1, “Gene polymorphisms and response to treatment” (priority 2001, published 2003)

Key:
[1] = Dose-ranging clinical trial of GW320659 for weight loss: absolute change in body weight week 0 to week 24, by genotype; assay type: in vivo, human; details: for Placebo adjusted mean absolute change in body weight / Placebo adjusted mean absolute change in weight: 15 mg dose group
Text: The present inventors determined that the genetic polymorphisms identified herein are associated with differences in phenotypic response to treatment with the neuronal monoamine reuptake inhibitor GW320659. In the present study, the genotyped subjects had been recruited from a randomized placebo-controlled study of GW320659 for the treatment of obesity, in conjunction with a mildly hypocaloric diet and brief weight management guidance. Subjects had been randomized into one of five treatment groups: placebo or GW320659 at 2.5 mg/day, 5 mg/day, 10 mg/day, or 15 mg/day; outcome measurements included weight loss over baseline weight and changes in supine heart rate, supine diastolic blood pressure, and supine systolic blood pressure.
The primary outcome measurement was the individual's absolute change from baseline body weight (weight at week 0, randomization visit) to weight after 24 weeks of treatment. Genotypes associated with at least a 5.8 kg average weight loss over the 24 week study for subjects receiving 15 mg/day GW320659 are shown in Table 2. The average weight loss in the total (non-genotyped) clinical trial of GW320659 (at the 15 mg/day dosage) was 3.7 Kg (data not shown).
(§1) Using genotyping methods as are well known in the art, genetic data were obtained from approximately 200 of more than 500 human subjects enrolled in a dose-ranging efficacy and safety study of GW320659 for weight loss (main study group; a randomized, double-blind, placebo controlled, dose-ranging clinical trial); GW320659 was used in conjunction with a mildly hypocaloric diet and brief weight management guidance. Subjects were between the ages of 18-65 years, with a Body Mass Index (BMI) of 30-40, and were not on any psychotropic medications or other anti-obesity medications. Subjects were randomized into one of five treatment groups: placebo or GW320659 at 2.5 mg/day, 5 mg/day, 10 mg/day, or 15 mg/day (oral administration). In the main study group, for the GW320659 15 mg/day dosage, average weight loss was approximately 3.7 kg (108 subjects; data not shown).
(§2) Subjects were assessed for various parameters, including absolute change in body weight from week 0 to week 24 of the study; supine heart rate, diastolic blood pressure and systolic blood pressure at multiple predetermined time-points across the study; and change in Food Craving Inventory (Total) score from week 0 to week 24.
Change in body weight was analyzed using Analysis of Variance (ANOVA); body weight at Week 0 (randomization visit) was used as the baseline weight. The absolute change from baseline in body weight at week 24 was the dependent (response) variable. The primary independent variables were treatment group and genotype. Treatment by genotype interaction was assessed with the appropriate orthogonal trend (treatment) by genotype contrasts. […] The primary model is denoted as follows:
Recursive partioning (HelixTree Software, May 1, 2001) was used to further examine the data. Due to sample size constraints, a combination of automatic and manual splits were used to best describe the underlying relationships between genotypes, treatment dose, and other demographic variables for each selected endpoint. Recursive partioning was applied to the following endpoints: change in weight, change in food craving (total score) inventory, change (Area Under the Curve (AUC) adjusted) in supine heart rate, and change (AUC adjusted) in supine diastolic blood pressure.
The multilocus genotypes from each individual were used to enumerate all possible haplotypes. These haplotypes were assigned starting frequencies. The haplotype frequencies were updated with frequencies calculated from all the possible haplotypes from each individual in the sample. This continued until the frequencies were constant from iteration to iteration.
Regression-based models were used to relate inferred haplotype probabilities for each individual with the continuous response.

[2] = Clinical trial of GW320659: change in Food Craving Inventory (Total) score week 0 to week 24, by genotype; assay type: in vivo, human; details: for Change in Food Craving Inventory, mean response: 10 mg+15 mg; for Placebo adjusted mean change in Food Craving Inventory (Total) score: 15 mg dose group; for Mean change in Food Craving Inventory (Total) score: data not shown
Text: as §1, §2
The endpoint of Change in Food Craving Inventory (total score) was analyzed with the same methods.
The Food Craving Inventory used was a validated scale developed at Louisiana State University. It is a scale of 37 items designed to measure food cravings for specific foods. For each item the subject is asked “Over the past month, how often have you experienced a craving for the food?”. Possible responses were Never, Rarely, Sometimes, Often, and Always. These responses were converted to ordinal scores (1, 2, 3, 4, 5). The mean total score was computed for each patient. Change from baseline mean scores were analyzed. Possible range for this measure was −4 to 4; a negative number indicates a decrease in cravings.
The change in Food Craving Inventory was assessed by grouping low dose treatments together (2.5+5 mg treatments) and higher dose treatments together (10 mg+15 mg), and comparing to placebo, using a p-value threshold set at […] (the minimum level necessary to get further automatic splits). The software then determined the remaining splits for the 10 mg+15 mg group. The splits found in the 10+15 mg group were then manually duplicated for the lower dose group (2.5+5 mg) for comparison purposes. As an example, for the 10 mg+15 mg treatment doses, the mean response for subjects with genotype 1, 2 or 2,2 for the NET1 C120A genetic marker and a baseline weight greater than 86.6 kg, was −0.55 (std=0.37 n=49). FIG. 11. For all subjects not in the defined subgroup, mean response was −0.02 (std=0.60, n=25).

[3] = subgroup 2/2 NET1T342C and/or 2/2 NET1G155A and/or 2/2 NR1G6435A, 10 mg/day+15 mg/day, 26 subjects

C[C@@H]1CO[C@@](O)(c2cc(F)cc(F)c2)[C@H](C)N1.Cl [GW320659, (2S,3S,5R)-2-(3,5-difluorophenyl)-3,5-dimethyl-2-morpholinol]
Average weight loss, main study group ([1]; 15 mg/day oral, 108 subjects, data not shown): approximately 3.7 kg
Average weight loss, total (non-genotyped) clinical trial ([1]; 15 mg/day, 24 weeks, not divided by genotype, data not shown): 3.7 kg
Average weight loss ([1]; 5HTT Del-Ins (1,2) genotype, 15 mg/day dose): -5.2 kg
Average Weight Loss (Kg)(range) ([1]; 5HTT G160A genotype 2,2, 15 mg/day, 24 weeks): −6.1 (−10.3, −3.2) Kg
Average Weight Loss (Kg)(range) ([1]; 5HTT G769T genotype 1,1, 15 mg/day, 24 weeks): −6.0 (−9.5, −3.2) Kg
Average Weight Loss (Kg)(range) ([1]; DAT1 genotype 9,9, 15 mg/day, 24 weeks): −7.6 (−22.1, −1.1) Kg
Average Weight Loss (Kg)(range) ([1]; DAT1 genotype 10,9, 15 mg/day, 24 weeks): −6.6 (−20.4, 1.3) Kg
Average Weight Loss (Kg)(range) ([1]; NET1 C120A genotype 2,2, 15 mg/day, 24 weeks): −5.8 (−20.4, 1.3) Kg
Absolute change in weight (largest for any sub-group) ([1]; NET1 G155A 2,2 genotype, 15 mg dose, n=4): -9.0 kg
Average Weight Loss (Kg)(range) ([1]; NET1 G155A genotype 2,2, 15 mg/day, 24 weeks): −9.0 (−20.4, −3.3) Kg
Mean absolute change in weight ([1]; NET1 T342C 2,2 genotype, 15 mg dose, n=7): -7.1 kg
Weight loss compared to subjects with alternate genotypes ([1]; NET1 T342C (2,2) and without DRD2 C12121T (2,2), 10 mg/day or 15 mg/day): increased weight loss
Placebo adjusted mean absolute change in body weight ([1]; NET1 T342C genotype 1,1): -2.8 kg
Placebo adjusted mean absolute change in body weight ([1]; NET1 T342C genotype 1,2): -3.3 kg
Placebo adjusted mean absolute change in body weight ([1]; NET1 T342C genotype 2,2): -7.3 kg
Average Weight Loss (Kg)(range) ([1]; NET1 T342C genotype 2,2, 15 mg/day, 24 weeks): −7.1 (−13.7, 0) Kg
Average Weight Loss (Kg)(range) ([1]; NR1 G1001C genotype 1,2, 15 mg/day, 24 weeks): −6.0 (−13.7, −0.9) Kg
Placebo adjusted mean absolute change in weight ([1]; NR1 G6435A genotype 1,1): -4.4 kg
Placebo adjusted mean absolute change in weight ([1]; NR1 G6435A genotype 1,2): -1.9 kg
Placebo adjusted mean absolute change in weight ([1]; NR1 G6435A genotype 2,2, three placebo and four GW320659 subjects): -10.3 kg
Average Weight Loss (Kg)(range) ([1]; NR1 G6435A genotype 2,2, 15 mg/day, 24 weeks): −6.9 (−9.2, −3.3) Kg
Weight Loss at 24 weeks, Mean ([1]; haplotype 1,1 NET1G155A NET1T342C, All Ethnicities, 10-15 mg (Table 4)): −2.007
Weight Loss at 24 weeks, Mean ([1]; haplotype 1,1 NET1G155A NET1T342C, Caucasians, 10-15 mg (Table 5)): −1.739
Weight Loss at 24 weeks, Mean ([1]; haplotype 1,2 NET1G155A NET1T342C, All Ethnicities, 10-15 mg (Table 4)): −4.325
Weight Loss at 24 weeks, Mean ([1]; haplotype 1,2 NET1G155A NET1T342C, Caucasians, 10-15 mg (Table 5)): −4.416
Weight Loss at 24 weeks, Mean ([1]; haplotype 2,1 NET1G155A NET1T342C, All Ethnicities, 10-15 mg (Table 4)): −3.886
Weight Loss at 24 weeks, Mean ([1]; haplotype 2,1 NET1G155A NET1T342C, Caucasians, 10-15 mg (Table 5)): −2.9211
Weight Loss at 24 weeks, Mean ([1]; haplotype 2,2 NET1G155A NET1T342C, All Ethnicities, 10-15 mg (Table 4)): −9.99
Weight Loss at 24 weeks, Mean ([1]; haplotype 2,2 NET1G155A NET1T342C, Caucasians, 10-15 mg (Table 5)): −9.413
Mean weight loss ([1]; subgroup 2,2 for NET1T342C and/or NET1G155A and/or NR1G6435A, 10 mg/day+15 mg/day combined, 24 weeks): 6.05 kg
Change in weight at Week 24 [1, 3]: -6.05 kg
Mean weight loss at 24 weeks ([1]; subgroup 2/2 for NET1T342C and not 2/2 for DRD2C12121T): ≥ 6 kg
Mean weight loss ([1]; subgroup DAT1VNTR 10,9 or 9,9, 15 mg/day, 24 weeks): 6.89 kg
Change in Food Craving Inventory, mean response ([2]; NET1 C120A genotype 1,2 or 2,2 and baseline weight greater than 86.6 kg, std=0.37 n=49): −0.55
Change in Food Craving Inventory, mean response ([2]; all subjects not in the defined subgroup, std=0.60, n=25): −0.02
Placebo adjusted mean change in Food Craving Inventory (Total) score ([2]; 5HTT G160A 2,2 genotype, scale range −4 to 4): 0.7
Mean change in Food Craving Inventory (Total) score ([2]; DRD2 C12121T 1,1 genotype, 15 mg dose): −0.7
Mean change in Food Craving Inventory (Total) score ([2]; DRD2 C20236T 2,2 genotype, 15 mg dose): −0.7
Placebo adjusted mean change in Food Craving Inventory (Total) score ([2]; NET1 C120A genotype 1,1): 0.2
Placebo adjusted mean change in Food Craving Inventory (Total) score ([2]; NET1 C120A genotype 1,2): −0.4
Placebo adjusted mean change in Food Craving Inventory (Total) score ([2]; NET1 C120A genotype 2,2): −0.4
Mean change in Food Craving Inventory (Total) score ([2]; NET1 T342C 2,2 genotype, 10 mg dose): −0.7
Mean change in Food Craving Inventory (Total) [2, 3]: −0.528
